Reference: PubChem BioAssay (NCI)
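Tested at 5 concentrations; 48 h exposure; 96-well plates; endpoints linearly interpolated, else capped at highest concentration. TGI is the concentration that stops growth completely.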

Assays:
Test in all cases: NCI anticancer screen, dose series, 48 h
MDA-N = system: MDA-N
SR leukemia = system: SR leukemia
HCT-116 colon = system: HCT-116 colon
HCC-2998 colon = system: HCC-2998 colon
U251 CNS = system: U251 CNS
DU-145 prostate = system: DU-145 prostate
COLO 205 colon = system: COLO 205 colon
EKVX NSCLC = system: EKVX NSCLC
PC-3 prostate = system: PC-3 prostate
RPMI-8226 leukemia = system: RPMI-8226 leukemia
OVCAR-4 ovarian = system: OVCAR-4 ovarian
NCI/ADR-RES ovarian = system: NCI/ADR-RES ovarian
A549 NSCLC = system: A549 NSCLC
HOP-92 NSCLC = system: HOP-92 NSCLC
HL-60(TB) leukemia = system: HL-60(TB) leukemia

Compound	TGI (MDA-N) [µM]	TGI (SR leukemia) [µM]	TGI (HCT-116 colon) [µM]	TGI (HCC-2998 colon) [µM]	TGI (U251 CNS) [µM]	TGI (DU-145 prostate) [µM]	TGI (COLO 205 colon) [µM]	TGI (EKVX NSCLC) [µM]	TGI (PC-3 prostate) [µM]	TGI (RPMI-8226 leukemia) [µM]	TGI (OVCAR-4 ovarian) [µM]	TGI (NCI/ADR-RES ovarian) [µM]	TGI (A549 NSCLC) [µM]	TGI (HOP-92 NSCLC) [µM]	TGI (HL-60(TB) leukemia) [µM]
Cc1cccc(CP(Cc2cccc(C)c2)CC2(Cp3c4ccccc4c4ccccc43)COC2)c1	> 100	> 94.4	> 100	> 100	> 100	> 100	2.96	> 100	> 100	> 62.5	> 100	> 100	> 100	> 100	2.78
O=S(=O)(O)C(=Nc1cccc(Cc2ccccc2)c1)Nc1cccc(Cc2ccccc2)c1	47.2	69.7	28.2	35.5	37.8	35.4	34.3	30.9	35.1	83.1	41	35.2	51.9	28.6	95.7
Cc1cccc(N(C(=O)Nc2ccc(Cl)c(Cl)c2)C2=NCC(C)S2)c1 (stereo not given)	> 100	> 100	> 100	> 100	> 100	> 100	> 100	> 100	> 100	> 100	> 100	> 100	> 100	> 100	> 100
O=c1ccn([C@@H]2C[C@@H]2CO)c(=O)[nH]1	> 100	> 100	> 100	> 100	> 100	> 100	> 100	> 100	> 100	> 100	> 100	> 100	> 100	> 100	> 100
Brc1cc(CCOC2CCCCO2)c(-c2sccc2CCOC2CCCCO2)s1 (stereo not given)	> 100	49.1	> 100	> 100	> 100	> 100	> 100	> 100	> 100	> 100	> 100	> 100	> 100	> 100	42.3
CCCCCCC(=O)O[C@H]1CC[C@H]2[C@@H]3CCC4C/C(=N/NC(=O)c5cccc6c(=O)c7ccccc7[nH]c56)C=C(C)[C@]4(C)[C@H]3CC[C@]12C (stereo not given in full)	> 25	> 25	> 25	> 25	> 25	> 25	> 25	> 25	> 25	> 25	> 25	> 25	> 25	> 25	> 25
Cc1ccc(N(C(=O)Nc2ccccc2)C2=NCC(C)S2)cc1C (stereo not given)	31.9	86	46.5	> 10	51.3	> 100	41.6	72.1	> 100	49	> 100	52.4	> 100	43.3	63.7
CCOC(=O)c1nc2ccccc2nc1NCc1cc(OC)c(OC)c(OC)c1	51.8	> 100	> 100	> 100	> 100	> 100	> 100	> 100	> 100	> 100	> 100	47.8	> 100	> 100	> 100
Cc1nn(C(=O)c2ccc(Cl)cc2)c2c1C(c1ccccc1[N+](=O)[O-])SC(N)=N2 (stereo not given)	> 10	> 10	> 10	> 10	> 10	> 10	> 10	> 10	> 10	> 10	> 10	> 10	> 10	> 10	> 10
C=CCOC(=O)NC1C(OC(C)[C@@H](NC(=O)OCc2ccccc2)C(=O)OC(C)(C)C)OC(COC(C)=O)C(OC(C)=O)C1OC(C)=O (stereo not given in full)	> 100	> 100	> 100	> 100	> 100	> 100	> 100	> 100	> 100	> 100	> 100	> 100	> 100	> 100	> 100
C[C@@H](c1ccccc1)N1CN(C(=O)OCc2ccccc2)C(C)(C)CC1=O	> 100	> 100	> 100	> 100	> 100	> 100	> 100	> 100	> 100	> 100	> 100	> 100	> 100	> 100	> 100
Nc1ccc2c(SCc3ccc([N+](=O)[O-])cc3)c3ccccc3nc2c1	31.1	5.05	22.7	> 54	38.1	17.9	6.36	59	29.7	14.2	30.6	40.6	48.9	36.4	10.1
CC(=O)Oc1ccc(-c2cc3ccccc3oc2=O)cc1	> 100	> 100	> 100	> 100	> 100	> 100	> 100	> 100	> 100	> 100	> 100	> 100	> 100	> 100	> 100
CC(C)(C)OC(=O)N1CCC(C(=O)O)CC1	> 100	> 100	> 100	> 100	> 100	> 100	> 100	> 100	> 100	> 100	> 100	> 100	> 100	> 100	> 100
NC(=O)c1cc2ccc(O)cc2oc1=Nc1ccccc1	> 100	53.9	> 100	78.8	> 100	> 100	44	> 100	> 100	63.8	> 100	> 100	> 100	> 100	62.4
